Source: patent publication EP0096457B1, “Indium complexes of substituted 8-hydroxy-quinolines, pharmaceutical compositions containing them and their use as antibacterial agents” (NATIONAL RESEARCH DEVELOPMENT CORPORATION, priority 1982, dated 1983)
≈ marks a conversion by molar mass, not a printed value.

What was measured:
E. coli (108, co1V^+) = assay type: in vivo; details: groups of 5 Parks mice infected i.p. with 8.0 x 10^6 E. coli, i.p. treatment 0.2 ml twice per day for 1 day (indium complex 4.6 mg/kg, metal-free compound 3.4 mg/kg per dose)
Description: (§1) The solutions for administration were prepared as follows: • (1) 2 equivalents of 5,7-dichloro-8-hydroxyquinoline were dissolved in a 15 mM solution of InCl3·3H2O in ethanol containing 1% v/v of glycerol. A 1.0 ml aliquot of this solution was dried in vacuo using a sterile universal container and the resultant residue was treated with 15 ml of sterile 0.15 M aqueous sodium chloride containing 1 % w/v of sodium bicarbonate and the solid dispersed by sonication. A 0.2 ml dose of the final preparation corresponds to a dose of 4.6 mg/kg in a 25 g mouse. • (2) 6.4 mg of 5,7-dichloro-8-hydroxyquinoline were moistened by the addition of 0.05 ml of dimethyl sulphoxide and to the moistened material was added 15 ml of sterile 0.15 M aqueous sodium chloride containing 1% w/v of sodium bicarbonate, the solid then being dispersed by sonication. A 0.2 ml dose of the final preparation corresponds to a dose of 3.4 mg/kg in a 25 g mouse.
Groups of 5 male or female Parks mice weighing from 23-25 g were infected by intraperitoneal injection of one of 8.0 x 10^6 E. coli, 3.5 x 10^5 K. pneumoniae and 7.0 x 10^8 S. aureus, the organisms in each case being suspended in 0.2 ml of 10% v/v trypticase soy broth in 0.15 M aqueous sodium chloride, three groups of mice being infected with each organism. […]

[1] = test system: S. aureus (human isolate); test: In vivo test in intraperitoneally infected mice (deaths); details: groups of 5 Parks mice infected i.p. with 7.0 x 10^8 S. aureus, i.p. treatment 0.2 ml twice per day for 2 days (indium complex 4.6 mg/kg, metal-free compound 3.4 mg/kg per dose)
Description: as §1
(§2) Groups of 5 male or female Parks mice weighing from 23-25 g were infected by intraperitoneal injection of one of 8.0 x 10^6 E. coli, 3.5 x 10^5 K. pneumoniae and 7.0 x 10^8 S. aureus, the organisms in each case being suspended in 0.2 ml of 10% v/v trypticase soy broth in 0.15 M aqueous sodium chloride, three groups of mice being infected with each organism. For each organism, one of the three groups of infected mice was treated by intraperitoneal injection with 0.2 ml of a suspension of the indium complex whilst a second group was similarly treated with 0.2 ml of a supsension of the metal-free compound. The treatment was given twice per day for 1 day in the case of E. coli infection, twice per day for 4 days in the case of K. pneumoniae infection, and twice per day for 2 days in the case of the S. aureus infection. The third group of mice in each case received no treatment.

K. pneumoniae = test: as above; details: groups of 5 Parks mice infected i.p. with 3.5 x 10^5 K. pneumoniae, i.p. treatment 0.2 ml twice per day for 4 days (indium complex 4.6 mg/kg, metal-free compound 3.4 mg/kg per dose)
Description: as §1, §2

[2] = test system: Staphylococcus aureus (human isolate); test: Minimal inhibitory concentration (MIC) in broth culture; assay type: cell-based; details: trypticase soy broth with sodium bicarbonate, approx. 10^4 bacteria per ml, 18 hours at 37°C, 5% CO2 in air, lowest concentration with no visible growth, read-out: MIC Values S. aureus
Description: (§3) Experiments were carried out to find the minimal inhibitory concentrations (MIC) for solutions of various indium complexes against Staphylococcus aureus (human isolate), Escherichia coli (018; co1V^+) and Klebsiella pneumoniae and to compare these with the MIC values for the corresponding metal-free compounds. The complexes were prepared in solution as described in Example 1 except that in the case of the complex of 7-iodo-8-hydroxyquinoline 5-sulphonic acid, 5 molar equivalents of metal-free compound were reacted with the indium chloride trihydrate and the solution was prepared in water. The solutions of the metal-free compounds were prepared in the same solvent as used for the equivalent complex.
(§4) The culture medium used consisted of a 9:1 mixture of trypticase soy broth and 6% w/v aqueous sodium bicarbonate solution. The medium was bulk inoculated with approximately 10^4 test bacteria per ml and 5.0 ml aliquots were then dispensed into sterile 20 ml bottles to which 0.05 ml of the test solution had been added. The test solutions were obtained from the original solution of the indium complex or metal-free compound by dilution to give a suitable range of concentrations in µM. Control samples, to which either no test solution was added or to which the solvent of the test solution only was added, were also prepared.
(§5) For each compound tested the samples at the various concentrations were studied to determine the lowest concentration of the compound at which no growth could be seen. The MIC values thus obtained are shown in Table 1 where it will be seen that the values are in each case lower for the indium complex as compared with the metal-free compound.

Klebsiella pneumoniae = test: as above; assay type: cell-based; details: trypticase soy broth with sodium bicarbonate, approx. 10^4 bacteria per ml, 18 hours at 37°C, 5% CO2 in air, lowest concentration with no visible growth, read-out: MIC Values K. pneumoniae
Description: as §3, §4, §5

[3] = test system: Escherichia coli (018; co1V^+); test: as above; assay type: cell-based; details: trypticase soy broth with sodium bicarbonate, approx. 10^4 bacteria per ml, 18 hours at 37°C, 5% CO2 in air, lowest concentration with no visible growth, read-out: MIC Values E. coli
Description: as §3, §4, §5

| MIC [2] [µM] | MIC (Klebsiella pneumoniae) [µM] | MIC [3] [µM] | SMILES | Deaths at 7 days (E. coli (108, co1V^+)) | Deaths % (E. coli (108, co1V^+); at 7 days) [%] | Deaths at 7 days [1] | Deaths % ([1]; at 7 days) [%] | Deaths at 7 days (K. pneumoniae) | Deaths % (K. pneumoniae; at 7 days) [%] |
| --- | --- | --- | --- | --- | --- | --- | --- | --- | --- |
| 18.8 (≈ 3.38 µg/mL) | 38.5 (≈ 6.91 µg/mL) | 38.5 (≈ 6.91 µg/mL) | Oc1ccc(Cl)c2cccnc12 [5-Chloro-8-hydroxyquinoline] | – | – | – | – | – | – |
| > 500 | > 500 | > 500 | O=S(=O)(O)c1cc(I)c(O)c2ncccc12 [7-Iodo-8-hydroxyquinoline 5-sulphonic acid] | – | – | – | – | – | – |

| SMILES | MIC [2] [µM] | MIC (Klebsiella pneumoniae) [µM] | MIC [3] [µM] | Deaths at 7 days (E. coli (108, co1V^+)) | Deaths % (E. coli (108, co1V^+); at 7 days) [%] | Deaths at 7 days [1] | Deaths % ([1]; at 7 days) [%] | Deaths at 7 days (K. pneumoniae) | Deaths % (K. pneumoniae; at 7 days) [%] |
| --- | --- | --- | --- | --- | --- | --- | --- | --- | --- |
| Oc1c(Cl)cc(Cl)c2cccnc12 [5,7-dichloro-8-hydroxyquinoline] | 6.3 (≈ 1.35 µg/mL) | 100 (≈ 21.4 µg/mL) | 100 (≈ 21.4 µg/mL) | 5 | 100 | 4 | 80 | 5 | 100 |
